Experimental data published in PMC2895947 (Neuropsychopharmacology : official publication of the …, 2010).

Columns and labels:
CB1 receptor [1] = molecular target: T1, CB1 receptor (Mus musculus, UniProt P47746); test: Agonist-stimulated [35S]GTPγS binding in spinal cord membranes; format: biochemical, mice
CB1 receptor [2] = molecular target: T1, CB1 receptor; test: [3H]WIN55,212-2 autoradiography in brain sections after subchronic treatment; format: binding; settings: FAAH−/− mice treated subchronically; 1 nM radioligand; mean ± SEM
FAAH−/− and FAAH+/+ mice [3] = test: Rimonabant-precipitated withdrawal; format: in vivo; settings: after subchronic 50 mg/kg twice daily 5.5 days; rimonabant 10 mg/kg i.p.
FAAH−/− and FAAH+/+ mice [4] = settings: FAAH−/− mice ref Cravatt et al., 2001; cited from earlier work
CB1 receptor [5] = molecular target: T1, CB1 receptor; format: biochemical, mice
[6] = THC blood and brain levels, single bolus vs cumulative dosing; format: in vivo; settings: C57Bl/6J mice, mean ± SEM
FAAH−/− and FAAH+/+ mice [7] = test: Tail withdrawal; format: in vivo
FAAH−/− and FAAH+/+ mice [8] = test: Hypothermia; format: in vivo
FAAH−/− and FAAH+/+ mice [9] = test: Bar test for catalepsy, cumulative dose-response; format: in vivo
[10] = FAAH−/− mice treated subchronically, WIN55,212-2 10 μM, mean ± SEM
[11] = FAAH+/+ mice, naive, cumulative dosing
[12] = FAAH−/− mice, naive, cumulative dosing
[13] = Table 3, FAAH−/− mice, subchronic AEA
[14] = Table 3, FAAH−/− mice, subchronic THC
[15] = Table 3, FAAH−/− mice, subchronic vehicle

T1 sequence (P47746 whole entry): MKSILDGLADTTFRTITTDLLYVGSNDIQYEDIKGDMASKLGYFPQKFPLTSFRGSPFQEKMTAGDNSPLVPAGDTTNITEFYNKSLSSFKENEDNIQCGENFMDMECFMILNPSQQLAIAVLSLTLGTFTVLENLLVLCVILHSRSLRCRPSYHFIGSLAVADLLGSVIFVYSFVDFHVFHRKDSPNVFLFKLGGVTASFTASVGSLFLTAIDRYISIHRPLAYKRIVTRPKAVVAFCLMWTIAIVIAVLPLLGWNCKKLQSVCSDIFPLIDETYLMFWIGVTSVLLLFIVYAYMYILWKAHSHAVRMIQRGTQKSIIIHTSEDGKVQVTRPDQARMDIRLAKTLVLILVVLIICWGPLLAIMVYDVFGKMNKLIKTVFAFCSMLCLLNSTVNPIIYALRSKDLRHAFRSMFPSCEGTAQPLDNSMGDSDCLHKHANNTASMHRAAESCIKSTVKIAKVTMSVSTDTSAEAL

**Q.** Which results are given for `CCCCC/C=C\C/C=C\C/C=C\C/C=C\CCCC(=O)NCCO` [AEA, N-arachidonoyl ethanolamine]?
**A.** Emax of agonist-stimulated [35S]GTPγS binding (CB1 receptor [1]; spinal cord membranes from AEA-treated FAAH−/− mice): 35 ± 3.3 % Stim; Emax as percent of that obtained in vehicle-treated mice (CB1 receptor [1]; spinal cord membranes from AEA-treated mice): 104%; Emax of agonist-stimulated [35S]GTPγS binding (CB1 receptor [1]; spinal cord membranes from THC-treated FAAH−/− mice): 25 ± 2.3 % Stim; Emax as percent of that obtained in vehicle-treated mice (CB1 receptor [1]; spinal cord membranes from THC-treated mice): 75%; Emax of agonist-stimulated [35S]GTPγS binding (CB1 receptor [1]; spinal cord membranes from vehicle-treated FAAH−/− mice): 34 ± 1.6 % Stim; Specific [3H]WIN55,212-2 binding, Caudate-Putamen (CB1 receptor [2]): 0.95 ± 0.09 pCi/g; Specific [3H]WIN55,212-2 binding, Cerebellum (CB1 receptor [2]): 1.69 ± 0.18 pCi/g; Specific [3H]WIN55,212-2 binding, Globus Pallidus (CB1 receptor [2]): 2.31 ± 0.18 pCi/g; Specific [3H]WIN55,212-2 binding, Hippocampus (CB1 receptor [2]): 0.88 ± 0.06 pCi/g; Specific [3H]WIN55,212-2 binding, PAG (CB1 receptor [2]): 0.57 ± 0.06 pCi/g; Specific [3H]WIN55,212-2 binding, Substantia Nigra (CB1 receptor [2]): 3.11 ± 0.29 pCi/g; Rimonabant precipitated head twitches / headshakes (FAAH−/− and FAAH+/+ mice [3]): no changes; Persistence of antinociception, catalepsy, locomotor inhibition and hypothermia (FAAH−/− and FAAH+/+ mice [4]): 6 to 8 h; WIN55,212-2-stimulated [35S]GTPγS binding vs vehicle control (study 1, Figure 5) (CB1 receptor [5]; FAAH+/+ and FAAH−/− mice, caudate putamen, hippocampus, cerebellum): not different from vehicle control; Net WIN55,212-2-stimulated [35S]GTPγS binding, Caudate-Putamen (CB1 receptor [5]; [10]): 152 ± 28 nCi/g; Net WIN55,212-2-stimulated [35S]GTPγS binding, Cerebellum (CB1 receptor [5]; [10]): 178 ± 23 nCi/g; Net WIN55,212-2-stimulated [35S]GTPγS binding, Globus Pallidus (CB1 receptor [5]; [10]): 639 ± 60 nCi/g; Net WIN55,212-2-stimulated [35S]GTPγS binding, Hippocampus (CB1 receptor [5]; [10]): 132 ± 24 nCi/g; Net WIN55,212-2-stimulated [35S]GTPγS binding, PAG (CB1 receptor [5]; [10]): 79 ± 19 nCi/g; Net WIN55,212-2-stimulated [35S]GTPγS binding, Substantia Nigra (CB1 receptor [5]; [10]): 592 ± 49 nCi/g

**Q.** For `CCCCCc1cc(O)c2c(c1)OC(C)(C)[C@@H]1CCC(C)=C[C@@H]21` [THC, Δ^9-tetrahydrocannabinol], which “Brain THC level, single bolus” value ([6]; THC 3 mg/kg) is on record?
**A.** 77 ± 5 ng/mL

**Q.** What about the “Brain THC level, single bolus” value ([6]; THC 10 mg/kg) of the same molecule?
**A.** 212 ± 19 ng/mL

**Q.** What about the “Brain THC level, cumulative dosing” value ([6]; THC 30 mg/kg cumulative) of the same molecule?
**A.** 641 ± 134 ng/mL

**Q.** What about the “Brain THC level, single bolus” value ([6]; THC 30 mg/kg) of the same molecule?
**A.** 520 ± 79 ng/mL

**Q.** What about the “Brain THC level, cumulative dosing” value ([6]; THC 56 mg/kg cumulative) of the same molecule?
**A.** 1294 ± 178 ng/mL

**Q.** And the “Brain THC level, single bolus” value ([6]; THC 56 mg/kg)?
**A.** 1072 ± 156 ng/mL

**Q.** And the “Rimonabant precipitated head twitches / headshakes” value (FAAH−/− and FAAH+/+ mice [3])?
**A.** significant increases

**Q.** And the “Antinociception ED50 (95% CI)” value (FAAH−/− and FAAH+/+ mice [7]; [11])?
**A.** 19 (14-26) mg/kg

**Q.** What about the “Antinociception ED50 (95% CI)” value (FAAH−/− and FAAH+/+ mice [7]; [12]) of the same molecule?
**A.** 22 (17-30) mg/kg

**Q.** And the “Antinociception maximum effect ± SEM” value (FAAH−/− and FAAH+/+ mice [7]; FAAH−/− mice, subchronic THC 50 mg/kg twice daily 5.5 days, @ 300 mg/kg)?
**A.** 25 + 4%MPE @ 300 mg/kg

**Q.** What about the “Antinociception ED50 (95% CI)” value (FAAH−/− and FAAH+/+ mice [7]; [13]) of the same molecule?
**A.** 55 (44-69) mg/kg

**Q.** What about the “Antinociception ED50 (95% CI)” value (FAAH−/− and FAAH+/+ mice [7]; [14]) of the same molecule?
**A.** 76 (58-99) mg/kg

**Q.** And the “Antinociception ED50 (95% CI)” value (FAAH−/− and FAAH+/+ mice [7]; [15])?
**A.** 20 (16-24) mg/kg

**Q.** What about the “Hypothermia ED50 (95% CI)” value (FAAH−/− and FAAH+/+ mice [8]; [11]) of the same molecule?
**A.** 18 (15-22) mg/kg

**Q.** And the “Hypothermia ED50 (95% CI)” value (FAAH−/− and FAAH+/+ mice [8]; FAAH+/+ mice, subchronic THC)?
**A.** 109 (62- 190) mg/kg

**Q.** And the “Hypothermia ED50 (95% CI)” value (FAAH−/− and FAAH+/+ mice [8]; [12])?
**A.** 22 (16-32) mg/kg

**Q.** What about the “Hypothermia ED50 (95% CI)” value (FAAH−/− and FAAH+/+ mice [8]; FAAH−/− mice, subchronic AEA) of the same molecule?
**A.** 133 (106- 166) mg/kg

**Q.** What about the “Hypothermia ED50 (95% CI)” value (FAAH−/− and FAAH+/+ mice [8]; FAAH−/− mice, subchronic THC) of the same molecule?
**A.** 224 (190- 266) mg/kg

**Q.** What about the “Hypothermia ED50 (95% CI)” value (FAAH−/− and FAAH+/+ mice [8]; [13]) of the same molecule?
**A.** 50 (40-55) mg/kg

**Q.** And the “Hypothermia ED50 (95% CI)” value (FAAH−/− and FAAH+/+ mice [8]; [14])?
**A.** 32 (27-38) mg/kg

**Q.** And the “Hypothermia ED50 (95% CI)” value (FAAH−/− and FAAH+/+ mice [8]; [15])?
**A.** 17 (15-20) mg/kg

**Q.** What about the “Catalepsy ED50 (95% CI)” value (FAAH−/− and FAAH+/+ mice [9]; [11]) of the same molecule?
**A.** 18 (13-25) mg/kg

**Q.** What about the Catalepsy maximum effect (FAAH−/− and FAAH+/+ mice [9]; FAAH+/+ mice, subchronic THC, @ 300 mg/kg) of the same molecule?
**A.** 62% @ 300 mg/kg

**Q.** What about the “Catalepsy ED50 (95% CI)” value (FAAH−/− and FAAH+/+ mice [9]; [12]) of the same molecule?
**A.** 21 (15-28) mg/kg

**Q.** And the Catalepsy maximum effect (FAAH−/− and FAAH+/+ mice [9]; FAAH−/− mice, subchronic AEA, @ 300 mg/kg)?
**A.** 25% @ 300 mg/kg

**Q.** And the Catalepsy maximum effect (FAAH−/− and FAAH+/+ mice [9]; FAAH−/− mice, subchronic THC, @ 300 mg/kg)?
**A.** 67% @ 300 mg/kg

**Q.** And the “Catalepsy ED50 (95% CI)” value (FAAH−/− and FAAH+/+ mice [9]; [13])?
**A.** 62 (56-69) mg/kg

**Q.** What about the Catalepsy maximum effect (FAAH−/− and FAAH+/+ mice [9]; Table 3, FAAH−/− mice, subchronic THC, @ 150 mg/kg) of the same molecule?
**A.** 50% @ 150 mg/kg

**Q.** What about the “Catalepsy ED50 (95% CI)” value (FAAH−/− and FAAH+/+ mice [9]; [15]) of the same molecule?
**A.** 16 (13-19) mg/kg
